# Laboratory results: patent publication US20220112217A1, “PYRAZOLOPYRIMIDINE DERIVATIVE AND USE THEREOF AS PI3K INHIBITOR” (MEDSHINE DISCOVERY INC., priority 2018, published 2022)
# Read-outs that look alike come from different tables or passages of the source.
# Key:
# [1] = In vivo DMPK study, single dose in female Balb/c mice; conditions: for half-life: female, Balb/c, 1 mg/kg, note lists it as an intravenous parameter, read-out: T1/2 (half-life) (converted); for half-life / Cmax: mouse, plasma; for half-life / Oral DNAUC (dose-normalized area under curve): mice; for Cmax: oral 3 mg/kg, female Balb/c mice
# Protocol: Objective: To evaluate the plasma concentration of the compounds and pharmacokinetics after a single dose in female Balb/c mice.
# Procedures: 8 healthy adult female Balb/c mice were randomized, 4 for intravenous administration and 4 for oral administration. The compounds were mixed with a proper amount of vehicle for intravenous injection (DMSO/PEG200/water (5:45:50 v/v/v)). The mixture was vortexed and treated with ultrasound to give a 1.0 mg/mL clear solution. The clear solution was filtered through a microporous membrane filter for later use. For the oral group, the vehicle was 0.5% MC/0.2% Tween 80. The compound was mixed with the vehicle, and the mixture was vortexed and ultrasonically treated to give 1.0 mg/mL uniform suspension for later use. The mice were administered intravenously at 1 mg/kg or orally at 3 mg/kg. Whole blood was collected at certain time points, and plasma was separated. The drug concentration was measured by LC-MS/MS, and pharmacokinetic parameters were calculated using
# Phoenix WinNonlin software (Pharsight, USA).
# PI3K gamma = PI3K gamma (Homo sapiens, UniProt P48736); assay: In vitro enzyme activity assay (ADP-Glo lipid kinase), PI3K gamma; conditions: PI3Kγ IC50, ATP 25 μM, PIP2:3PS 50 μM, 120 min
# Protocol: (§1) An appropriate substrate and ATP were incubated at a suitable condition for lipid kinase reaction, followed by a two-step detection of kinase activity using an ADP-Glo™ kit. Step I: The kinase reaction was terminated and residual ATP was completely removed, leaving ADP only; Step II: A kinase assay reagent was added to convert ADP to ATP by a luciferin/luciferase reaction. Finally, a fluorescence output value was detected and converted into kinase activity.
# (§2) • 2) Kit: ADP-Glo™ lipid kinase and PIP2:3PS kit (Promega #V1792)
# (§3) The mixture was incubated at 23° C. for 20 min • (10) 2 μL of ATP solution was added, and the mixture was centrifuged at 1000 rpm and was shaken to mix well • (11) The plate was covered, shaken for about 30 s, and incubated for 2 h at 23° C. • (12) 5 μL of ADP-Glo reagent containing 10 mM MgCl2 was added • (13) The mixture was centrifuged at 1000 rpm for 10 s, covered and shaken for about 30 s, and incubated at 23° C. for 60 min • (14) 10 μL of kinase assay reagent was added • (15) The mixture was centrifuged at 1000 rpm for 10 s, and incubated at 23° C. for 60 min • (16) Fluorescence values were measured by an Envision system. • 2. […] The mixture was incubated at 37° C./CO2 for 10 min. • 5) The compound was removed by pipette. Lysis buffer was added at 50 μL/well, and the cells wereincubated on a shaker for 30 min. • 6) After the cells were completely lysed, 16 μL of lysate was transferred to a 384-well plate and 4 μL of prepared AC+D2 in the kit was added. (AC: Eu3+-cryptate antibody binds to phosphorylated AKT, while D2 binds to non-phosphorylated AKT) The mixture was incubated at room temperature for 4 h.
# PI3K delta = PI3K delta (Homo sapiens, UniProt O00329); assay: In vitro enzyme activity assay (ADP-Glo lipid kinase), PI3K delta; conditions: PI3Kδ IC50, ATP 40 μM, PIP2:3PS 50 μM, 120 min;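 also: kinase reaction run at 23 °C, then leftover ATP depleted and the ADP formed turned back into ATP, with the luciferin/luciferase signal read as kinase activity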
# Protocol: as §1, §2
# The kit comprises: 1 mM PIP2:3PS, 10× lipid dilution buffer, 1 M magnesium chloride, 10 mM ATP, 10 mM ADP, ADP-Glo reagent, detection buffer and substrate. • 3) Plate: OptiPlate-384, white and transparent (PerkinElmer #6007299) Reagent preparation: • 1) 10x reaction buffer: 500 mM HEPES (4-(2-hydroxyethyl)-1-piperazineethanesulfonic acid), pH 7.5, 500 mM NaCl, 9 mM MgCl2; BSA: 10% stock solution, prepared in-house • 2) Condition for final test system: 1× reaction system: 50 mM HEPES, 50 mM NaCl, 3 mM MgCl2, 0.01% BSA (prepared on the day of experiment), 1% DMSO (v/v) +/−compound • 3) Reaction system: 3 μL of enzyme and substrate mixture (1:1) +2 μL of ATP/MgCl2 mixture +5 μL of ADP-Glo reagent +10 μL detection reagent.
# The specific experimental procedures are as follows: • 1) Dilution: 50 nL of 100× compound/DMSO solution were transferred into a test plate using Echo • For PI3Kα, the compound was serially diluted by three fold from the highest concentration 0.111 mM to the 10th concentration. • For PI3Kβ/PI3Kδ/PI3Kγ, the compound was serially diluted by three fold from the highest concentration of 1.11 mM to the 10th concentration. • 2) Kinase reaction: • (1) The target compounds were prepared. 50 nL of 100× compound solution or DMSO was added to the corresponding plate • (2) A 3.33 × reaction buffer was prepared • (3) A 3.33× PIP2:3PS solution were prepared; the PIP2:3PS solution should be thawed by vortex for at least 1 min before use • (4) An ATP solution containing 5.25 mM MgCl2 was prepared • (5) 3.33× PI3Kα/PI3Kβ/PI3Kδ/PI3Kγ solutions were prepared • (6) The lipid kinase solution and PIP2:3PS solution were mixed at a volume ratio of 1:1 • (7) The 3.33 × lipid kinase buffer and PIP2:3PS solution were mixed at a volume ratio of 1:1 • (8) 3 μL of the mixed solution of reaction buffer and PIP2:3PS was added to Columns 1 and 2 of the plate • (9) 3 μL of the mixed solution of the enzyme and PIP2:3PS was added to the wells of the plate other than Columns 1 and 2, and was centrifuged for 10 s (1000 rpm). The mixture was incubated at 23° C. for 20 min • (10) 2 μL of ATP solution was added, and the mixture was centrifuged at 1000 rpm and was shaken to mix well • (11) The plate was covered, shaken for about 30 s, and incubated for 2 h at 23° C. • (12) 5 μL of ADP-Glo reagent containing 10 mM MgCl2 was added • (13) The mixture was centrifuged at 1000 rpm for 10 s, covered and shaken for about 30 s, and incubated at 23° C. for 60 min • (14) 10 μL of kinase assay reagent was added • (15) The mixture was centrifuged at 1000 rpm for 10 s, and incubated at 23° C. for 60 min • (16) Fluorescence values were measured by an Envision system. • 2.
# TMD-8 cell = TMD-8 cell viability test (CellTiter-Glo, 72 h); assay type: cell-based; conditions: Homo sapiens, TMD8
# Protocol: 7) After incubation, readings at 620 and 665 nm on EnVingen were recorded. • <2> TMD-8 cell viability test • 1) Cell Culture
# Cells were regularly passaged. Cells at logarithmic growth phase were transferred to the plate. • 2) Plating • (1). Cells were stained with trypan blue and viable cells were counted. • (2). Cell concentration was adjusted to 7000 cells/well • (3). 90 μL of cell suspension was added to each well of the plate and cell-free medium was added to blank control wells. • (4). The plate was incubated overnight at 37° C., 5% CO2 and 100% relative humidity in an incubator. • 3) Preparation of Plate Containing Compound Stock
# (1). Preparation of plate containing 400× compound stock: Compounds were diluted from the highest concentration gradient to lowest concentration with DMSO. • 4) Preparation of 10× compound working solution and treatment • (1). Preparation of 10× compound working solution: 78 μL of cell culture medium was added to a V-bottom 96-well plate, and 2 μL of compound stock solution was pipetted from the plate containing 400× compound stock into the cell cultures of 96-well plate. 2 μL of DMSO was added to the vehicle control wells and blank control wells. After compounds or DMSO was added, the mixture was well mixed by a pipette. • (2). 10 μL of DMSO-cell culture medium mixture solution was added to the vehicle control wells and blank control wells. The final concentration of DMSO was 0.25%. • (3). The 96-well cell plate was incubated in the incubator for another 72 h. • 5) CellTiter-Glo Luminescent Cell Viability Assay
# The following procedure was performed according to the instructions of Promega CellTiter-Glo luminescent cell viability assay kit (Promega-G7573). • (1). CellTiter-Glo buffer was thawed and let stand at room temperature. • (2). The CellTiter-Glo substrate was let stand at room temperature. • (3). The CellTiter-Glo buffer was added to a flask of CellTiter-Glo substrate to dissolve the substrate, thereby preparing a CellTiter-Glo working solution. • (4). The solution was vortexed to completely dissolve the substrate. • (5). The plate was incubated at room temperature for 30 min for equilibration. • (6). 50 μL (equal to half the volume of cell culture medium in each well) of CellTiter-Glo working solution was added to each well. The plate was covered by aluminum foil to avoid light. • (7). The plate was shaken on an orbital shaker for 2 min to induce cell lysis. • (8). The plate was let stand at room temperature for 10 min to stabilize the luminescence signals. • (9). The luminescence signals were detected on 2104 EnVision plate reader.
# PI3K beta = PI3K beta (Homo sapiens, UniProt P42338); assay: In vitro enzyme activity assay (ADP-Glo lipid kinase), PI3K beta
# Protocol: as §1, §2, §3
# PI3K alpha = PI3K alpha (Homo sapiens, UniProt P42336); assay: In vitro enzyme activity assay (ADP-Glo lipid kinase), PI3K alpha
# PI3K alpha, sequence (P42336 whole entry): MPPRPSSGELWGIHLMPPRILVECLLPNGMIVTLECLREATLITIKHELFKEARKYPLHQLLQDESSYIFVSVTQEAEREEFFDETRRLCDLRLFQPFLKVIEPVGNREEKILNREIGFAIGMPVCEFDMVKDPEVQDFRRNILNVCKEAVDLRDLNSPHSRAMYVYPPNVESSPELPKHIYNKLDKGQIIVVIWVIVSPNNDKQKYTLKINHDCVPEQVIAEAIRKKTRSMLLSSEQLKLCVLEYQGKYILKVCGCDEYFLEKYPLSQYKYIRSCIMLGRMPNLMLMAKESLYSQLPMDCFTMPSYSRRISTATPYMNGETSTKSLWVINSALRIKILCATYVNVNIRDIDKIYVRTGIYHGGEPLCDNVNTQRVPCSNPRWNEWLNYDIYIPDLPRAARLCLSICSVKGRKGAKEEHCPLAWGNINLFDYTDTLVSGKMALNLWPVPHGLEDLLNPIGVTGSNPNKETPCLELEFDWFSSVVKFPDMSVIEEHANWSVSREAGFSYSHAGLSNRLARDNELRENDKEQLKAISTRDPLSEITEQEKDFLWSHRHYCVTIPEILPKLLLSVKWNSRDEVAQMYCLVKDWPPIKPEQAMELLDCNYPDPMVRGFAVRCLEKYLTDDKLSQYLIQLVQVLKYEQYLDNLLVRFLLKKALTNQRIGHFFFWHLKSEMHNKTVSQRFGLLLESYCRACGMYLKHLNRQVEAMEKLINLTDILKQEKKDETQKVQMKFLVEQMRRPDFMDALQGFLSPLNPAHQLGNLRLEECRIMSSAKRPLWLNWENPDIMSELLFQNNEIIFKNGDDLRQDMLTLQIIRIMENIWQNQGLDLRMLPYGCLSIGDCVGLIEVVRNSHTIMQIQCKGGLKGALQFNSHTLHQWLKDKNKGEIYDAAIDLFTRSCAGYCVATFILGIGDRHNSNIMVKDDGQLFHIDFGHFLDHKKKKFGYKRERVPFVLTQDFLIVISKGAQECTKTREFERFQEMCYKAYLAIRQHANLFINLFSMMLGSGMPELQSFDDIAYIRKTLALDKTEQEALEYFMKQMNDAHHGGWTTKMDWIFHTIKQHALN
# PI3K alpha, sequence (P27986 whole entry partner): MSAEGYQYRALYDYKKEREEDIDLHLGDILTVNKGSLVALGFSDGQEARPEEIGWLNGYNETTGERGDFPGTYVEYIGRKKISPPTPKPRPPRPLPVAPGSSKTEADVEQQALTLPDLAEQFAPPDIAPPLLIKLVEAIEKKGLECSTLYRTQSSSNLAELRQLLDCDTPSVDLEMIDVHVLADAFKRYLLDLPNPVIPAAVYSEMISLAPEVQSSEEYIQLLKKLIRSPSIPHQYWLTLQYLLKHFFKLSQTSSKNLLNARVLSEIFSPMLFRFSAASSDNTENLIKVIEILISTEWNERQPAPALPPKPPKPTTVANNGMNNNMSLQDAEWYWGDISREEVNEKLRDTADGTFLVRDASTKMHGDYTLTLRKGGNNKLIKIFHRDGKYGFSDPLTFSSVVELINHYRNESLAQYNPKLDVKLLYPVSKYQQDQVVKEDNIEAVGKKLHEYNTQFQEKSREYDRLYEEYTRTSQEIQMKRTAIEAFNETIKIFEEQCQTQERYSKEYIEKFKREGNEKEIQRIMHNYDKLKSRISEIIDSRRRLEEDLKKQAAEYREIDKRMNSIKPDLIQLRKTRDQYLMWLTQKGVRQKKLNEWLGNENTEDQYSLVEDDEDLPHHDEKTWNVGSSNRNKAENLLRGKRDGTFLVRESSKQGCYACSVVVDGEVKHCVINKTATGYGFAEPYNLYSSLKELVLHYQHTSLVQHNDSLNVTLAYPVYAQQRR
# Protocol: as §1, §2, §3
# PI3K gamma, sequence (P48736 whole entry): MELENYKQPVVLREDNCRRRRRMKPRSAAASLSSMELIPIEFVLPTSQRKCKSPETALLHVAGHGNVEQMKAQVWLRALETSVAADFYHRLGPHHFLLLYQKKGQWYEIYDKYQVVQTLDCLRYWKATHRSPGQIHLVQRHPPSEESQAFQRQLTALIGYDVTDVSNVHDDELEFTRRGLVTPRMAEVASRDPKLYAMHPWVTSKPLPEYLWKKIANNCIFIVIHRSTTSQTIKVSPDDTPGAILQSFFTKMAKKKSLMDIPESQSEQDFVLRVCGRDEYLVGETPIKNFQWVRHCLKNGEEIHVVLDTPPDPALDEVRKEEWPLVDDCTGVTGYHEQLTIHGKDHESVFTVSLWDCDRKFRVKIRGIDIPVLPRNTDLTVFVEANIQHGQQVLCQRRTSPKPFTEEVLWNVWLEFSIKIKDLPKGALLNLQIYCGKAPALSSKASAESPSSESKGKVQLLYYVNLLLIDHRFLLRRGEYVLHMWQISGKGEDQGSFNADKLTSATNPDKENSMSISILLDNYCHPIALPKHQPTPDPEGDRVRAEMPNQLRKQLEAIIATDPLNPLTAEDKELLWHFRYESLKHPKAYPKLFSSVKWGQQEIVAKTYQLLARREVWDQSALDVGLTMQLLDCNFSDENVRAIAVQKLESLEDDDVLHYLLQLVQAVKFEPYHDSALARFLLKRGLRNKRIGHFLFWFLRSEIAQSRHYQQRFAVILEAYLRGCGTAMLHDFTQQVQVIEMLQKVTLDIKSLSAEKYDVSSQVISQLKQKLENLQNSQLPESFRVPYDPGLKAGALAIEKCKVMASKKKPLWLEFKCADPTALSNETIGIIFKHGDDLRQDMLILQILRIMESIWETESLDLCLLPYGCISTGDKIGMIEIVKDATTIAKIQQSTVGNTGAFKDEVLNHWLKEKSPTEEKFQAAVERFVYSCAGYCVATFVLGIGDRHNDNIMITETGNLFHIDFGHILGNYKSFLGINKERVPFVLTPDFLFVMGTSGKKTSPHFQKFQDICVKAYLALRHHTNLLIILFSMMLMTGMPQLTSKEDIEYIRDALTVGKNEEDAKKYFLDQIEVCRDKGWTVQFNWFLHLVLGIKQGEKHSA
# PI3K delta, sequence (O00329 whole entry): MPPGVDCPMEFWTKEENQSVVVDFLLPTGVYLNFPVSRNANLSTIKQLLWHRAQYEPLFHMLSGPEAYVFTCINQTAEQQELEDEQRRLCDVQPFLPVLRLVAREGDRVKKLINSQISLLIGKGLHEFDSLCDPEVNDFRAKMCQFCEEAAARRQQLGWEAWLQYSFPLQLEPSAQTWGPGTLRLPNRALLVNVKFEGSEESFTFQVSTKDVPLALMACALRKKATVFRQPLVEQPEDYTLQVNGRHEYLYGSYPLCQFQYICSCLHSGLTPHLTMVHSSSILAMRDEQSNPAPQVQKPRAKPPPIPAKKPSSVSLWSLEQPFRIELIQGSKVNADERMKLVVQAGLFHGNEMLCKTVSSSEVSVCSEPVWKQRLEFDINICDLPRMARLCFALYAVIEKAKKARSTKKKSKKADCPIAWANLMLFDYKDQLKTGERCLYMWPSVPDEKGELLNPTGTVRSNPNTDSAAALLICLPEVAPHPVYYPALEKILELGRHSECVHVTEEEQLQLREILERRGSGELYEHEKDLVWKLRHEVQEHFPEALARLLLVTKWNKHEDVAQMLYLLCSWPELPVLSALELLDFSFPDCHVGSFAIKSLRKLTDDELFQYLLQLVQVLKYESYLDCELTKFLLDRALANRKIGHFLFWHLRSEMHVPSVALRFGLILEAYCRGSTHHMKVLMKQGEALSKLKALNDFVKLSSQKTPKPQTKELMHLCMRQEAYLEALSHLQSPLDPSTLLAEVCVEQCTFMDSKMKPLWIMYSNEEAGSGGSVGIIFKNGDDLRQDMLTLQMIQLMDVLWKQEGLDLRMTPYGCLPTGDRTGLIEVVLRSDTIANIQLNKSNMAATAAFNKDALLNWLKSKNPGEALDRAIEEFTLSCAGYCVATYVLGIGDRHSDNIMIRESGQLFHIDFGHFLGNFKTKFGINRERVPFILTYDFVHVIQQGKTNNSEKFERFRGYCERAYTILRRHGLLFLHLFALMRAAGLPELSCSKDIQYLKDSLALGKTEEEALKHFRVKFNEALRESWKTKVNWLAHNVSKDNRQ
# PI3K delta, sequence (P27986 whole entry partner): as the sequence (P27986 whole entry partner) above
# PI3K beta, sequence (P42338 whole entry): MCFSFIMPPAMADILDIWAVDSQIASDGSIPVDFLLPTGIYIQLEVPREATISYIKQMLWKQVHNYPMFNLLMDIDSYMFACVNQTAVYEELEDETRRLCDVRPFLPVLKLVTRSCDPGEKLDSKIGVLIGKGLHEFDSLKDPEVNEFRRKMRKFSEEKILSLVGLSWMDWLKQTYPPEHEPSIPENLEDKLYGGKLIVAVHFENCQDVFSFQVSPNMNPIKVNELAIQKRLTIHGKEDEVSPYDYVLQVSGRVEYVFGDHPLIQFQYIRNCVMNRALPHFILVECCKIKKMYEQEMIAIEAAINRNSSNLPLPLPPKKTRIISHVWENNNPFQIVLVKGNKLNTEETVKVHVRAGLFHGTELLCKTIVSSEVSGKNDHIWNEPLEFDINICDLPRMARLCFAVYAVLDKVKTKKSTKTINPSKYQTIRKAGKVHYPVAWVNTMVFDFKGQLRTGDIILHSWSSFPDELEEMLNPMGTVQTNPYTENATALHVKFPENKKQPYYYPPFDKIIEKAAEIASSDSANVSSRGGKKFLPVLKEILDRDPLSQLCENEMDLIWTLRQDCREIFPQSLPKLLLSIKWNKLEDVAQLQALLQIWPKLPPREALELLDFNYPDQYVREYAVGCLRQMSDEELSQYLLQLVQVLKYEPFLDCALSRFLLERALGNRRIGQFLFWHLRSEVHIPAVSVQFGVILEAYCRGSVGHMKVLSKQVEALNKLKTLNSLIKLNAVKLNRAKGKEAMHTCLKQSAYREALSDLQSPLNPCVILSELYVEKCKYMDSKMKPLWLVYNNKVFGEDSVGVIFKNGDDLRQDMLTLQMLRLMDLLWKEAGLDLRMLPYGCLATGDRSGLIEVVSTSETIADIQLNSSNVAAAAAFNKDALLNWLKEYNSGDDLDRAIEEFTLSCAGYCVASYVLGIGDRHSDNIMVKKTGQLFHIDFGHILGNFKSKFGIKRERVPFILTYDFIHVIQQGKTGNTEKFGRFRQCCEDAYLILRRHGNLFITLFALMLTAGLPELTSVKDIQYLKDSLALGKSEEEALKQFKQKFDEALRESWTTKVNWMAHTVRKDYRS
# PI3K beta, sequence (P27986 whole entry partner): as the sequence (P27986 whole entry partner) above
SMILES,IC50 (PI3K gamma) [nM],IC50 (PI3K delta) [nM],also measured
CC(c1nc2ccc(F)cn2c(=O)c1-c1cccc(F)c1)n1nc(-c2cnc(C(C)(C)C)s2)c2c(N)ncnc21 (stereo not drawn) [WX032],1740,16.3,half-life [1]: 18.4 h; Cmax [1]: 1500 nM; Oral DNAUC (dose-normalized area under curve) [1]: 2662 nM · h/mpk
"COc1ncc(-c2nn(C(C)c3nc4ccc(F)cn4c(=O)c3-c3cccc(F)c3)c3ncnc(N)c23)s1 (single isomer, unassigned) [WX008]",> 10000,783,
"CC(C)Oc1ccc(-c2nn(C(C)c3nc4ccc(F)cn4c(=O)c3-c3cccc(F)c3)c3ncnc(N)c23)cc1F (single isomer, unassigned) [WX002]",> 10000,> 1000,"IC50 (PI3K beta; read-out: PI3Kβ IC50, ATP 40 μM, PIP2:3PS 50 μM, 120 min): > 10000 nM; IC50 (PI3K alpha; read-out: PI3Kα IC50, ATP 40 μM, PIP2:3PS 50 μM, 120 min): > 10000 nM"
COCCOc1ncc(-c2nn(C(C)c3nc4ccc(F)cn4c(=O)c3-c3cccc(F)c3)c3ncnc(N)c23)s1 (stereo not drawn) [WX018],1550,122,IC50 (TMD-8 cell): 3420 nM; half-life [1]: 1.4 h; Cmax [1]: 2240 nM; Oral DNAUC (dose-normalized area under curve) [1]: 1244 nM · h/mpk
"COc1ncc(-c2nn(C(C)c3nc4ccc(F)cn4c(=O)c3-c3cccc(F)c3)c3ncnc(N)c23)cc1C#N (single isomer, unassigned) [WX006]",> 10000,> 1000,
CSc1ccc(-c2nn(C(C)c3nc4ccc(F)cn4c(=O)c3-c3cccc(F)c3)c3ncnc(N)c23)cn1 (stereo not drawn) [WX036],1210,66.6,
"CC(C)Oc1ncc(-c2nn(C(C)c3nc4ccc(F)cn4c(=O)c3-c3cccc(F)c3)c3ncnc(N)c23)cc1C#N (single isomer, unassigned) [WX024]",7170,313,
"CC(C)Oc1ccc(-c2nn(C(C)c3nc4ccc(F)cn4c(=O)c3-c3cccc(F)c3)c3ncnc(N)c23)cn1 (single isomer, unassigned) [WX003]",> 10000,> 1000,
CC(c1nc2ccc(F)cn2c(=O)c1-c1cccc(F)c1)n1nc(-c2cnc(OCC(F)(F)F)s2)c2c(N)ncnc21 (stereo not drawn) [WX028],2940,330,
"COc1ccc(-c2nn(C(C)c3nc4ccc(F)cn4c(=O)c3-c3cccc(F)c3)c3ncnc(N)c23)cn1 (single isomer, unassigned) [WX011]",> 10000,604,
Cc1nc(C)c(-c2nn(C(C)c3nc4ccc(F)cn4c(=O)c3-c3cccc(F)c3)c3ncnc(N)c23)s1 (stereo not drawn) [WX022],9860,601,
CC(C)Oc1ncc(-c2nn(C(C)c3nc4ccc(F)cn4c(=O)c3-c3cccc(F)c3)c3ncnc(N)c23)s1 (stereo not drawn) [WX048],2030,72.5,
COc1ccc(-c2nn(C(C)c3nc4ccc(F)cn4c(=O)c3-c3cccc(F)c3)c3ncnc(N)c23)cc1F (stereo not drawn) [WX009],> 10000,> 1000,

# Second part, led by results:
IC50 (PI3K gamma) [nM],IC50 (PI3K delta) [nM],SMILES,also measured
455,271,Cc1cccc2nc(C(C)n3nc(-c4ccc(OC(C)C)c(F)c4)c4c(N)ncnc43)c(-c3cccc(F)c3)c(=O)n12 (stereo not drawn) [WX040],
260,41.5,CC(c1nc2ccc(F)cn2c(=O)c1-c1cccc(F)c1)n1nc(-c2cnc(OCC(F)F)s2)c2c(N)ncnc21 (stereo not drawn) [WX016],IC50 (TMD-8 cell): 4110 nM; half-life [1]: 3.85 h; Cmax [1]: 2180 nM; Oral DNAUC (dose-normalized area under curve) [1]: 5599 nM · h/mpk
494,3.48,CC(c1nc2ccc(F)cn2c(=O)c1-c1cccc(F)c1)n1nc(-c2cnc(N(C)C)s2)c2c(N)ncnc21 (stereo not drawn) [WX046],half-life [1]: 1.73 h; Cmax [1]: 1560 nM; Oral DNAUC (dose-normalized area under curve) [1]: 1648 nM · h/mpk
1130,461,"CC(C)Oc1ncc(-c2nn(C(C)c3nc4ccc(F)cn4c(=O)c3-c3cccc(F)c3)c3ncnc(N)c23)cc1C#N (single isomer, unassigned) [WX025]",
620,229,CC(C)Oc1ccc(-c2nn(C(C)c3nc4c(Cl)cc(F)cn4c(=O)c3-c3cccc(F)c3)c3ncnc(N)c23)cc1F (stereo not drawn) [WX014],
408,4,CNc1ncc(-c2nn(C(C)c3nc4ccc(F)cn4c(=O)c3-c3cccc(F)c3)c3ncnc(N)c23)s1 (stereo not drawn) [WX034],
582,13.9,Cc1ncc(-c2nn(C(C)c3nc4ccc(F)cn4c(=O)c3-c3cccc(F)c3)c3ncnc(N)c23)s1 (stereo not drawn) [WX050],half-life [1]: 2.38 h; Cmax [1]: 1260 nM; Oral DNAUC (dose-normalized area under curve) [1]: 1513 nM · h/mpk
735,188,CC(c1nc2ccc(F)cn2c(=O)c1-c1cccc(F)c1)n1nc(-c2cnc3c(c2)OCCO3)c2c(N)ncnc21 (stereo not drawn) [WX056],Cmax [1]: 4950 nM; Oral DNAUC (dose-normalized area under curve) [1]: 2037 nM · h/mpk; IC50 (PI3K beta): > 10000 nM; IC50 (PI3K alpha): > 10000 nM
1190,45.6,CC(c1nc2ccc(F)cn2c(=O)c1-c1cccc(F)c1)n1nc(-c2cnc(OC3CC3)s2)c2c(N)ncnc21 (stereo not drawn) [WX030],
275,491,CC(c1nc2ccc(F)cn2c(=O)c1-c1cccc(F)c1)n1nc(-c2cnc(OC3CC(F)(F)C3)s2)c2c(N)ncnc21 (stereo not drawn) [WX020],IC50 (TMD-8 cell): > 50000 nM
573,297,"CC(C)Oc1ccc(-c2nn(C(C)c3nc4c(F)cccn4c(=O)c3-c3cccc(F)c3)c3ncnc(N)c23)cc1F (single isomer, unassigned) [WX013]",
